{"source": "patent US11229657B2", "about": "“Targeting hypoxic cancer stem cells (CSCs) with doxycycline: implications for improving anti-angiogenic therapy” (LUNELLA BIOTECH, INC., priority 2017, dated 2022)", "format_in_all_cases": "cell-based", "key": {"CSC propagation": {"test_system": "CSC propagation", "experiment": "IC-50s of metabolic agents for inhibiting CSC propagation (Table 3)", "settings": "read-out: IC-50 for inhibiting CSC propagation", "procedure": "Glycolysis is required to provide additional TCA cycle intermediates for the mitochondrial processing of Acetyl-CoA. […] Briefly, 2-deoxy-D-glucose (2-DG) or ascorbic acid were dissolved in culture medium. […] Bonuccelli et al. Oncotarget, 8: 20667-20678 (2017). […] 15, 2017, and Patent Cooperation Treaty (PCT) Patent Application PCT/US2018/022403, filed Mar. 14, 2018, the entireties of which are incorporated herein by reference; mitoketoscins, such as those disclosed in U.S. Provisional Patent Application No. 62/524,829, filed Jun. 26, 2017, the entirety of which is incorporated herein by reference; mitoflavoscins, such as those disclosed in U.S. Provisional Patent Application No. 62/576,287, filed Oct. 24, 2017, the entirety of which is incorporated herein by reference; TPP-compounds (e.g., 2-butene-1,4-bis-TPP), such as those disclosed in U.S. Provisional Patent Application No. 62/590,432, filed Nov. 24, 2017, the entirety of which is incorporated herein by reference; mDIVI1, such as those disclosed in U.S. Provisional Patent Application No. 62/608,065, filed Dec. 20, 2017, the entirety of which is incorporated herein by reference; CAPE (caffeic acid phenyl ester); antimitoscins, such as those disclosed in 62/508,702, filed May 19, 2017, the entirety of which is incorporated herein by reference; repurposcins such as those disclosed in U.S. Provisional Patent Application No. 62/593,372, filed Dec. 1, 2017, the entirety of which is incorporated herein by reference; other known mitochondrial inhibitors."}, "MCF7 cells [1]": {"test_system": "MCF7 cells", "experiment": "Mammosphere formation assay (CSC activity/propagation)", "settings": "for IC50: Homo sapiens, MCF7, Valproic acid-augmented conditions, read-out: IC-50, Valproic acid-augmented CSC propagation; for IC50 / Valproic acid-augmented CSC propagation (mammosphere formation): FIG. 12C; for Valproic acid-augmented CSC propagation (mammosphere formation): glycolysis inhibitors; for basal and Valproic acid-augmented CSC propagation (mammosphere formation): FIG. 12A-B", "protocol": "Briefly, a single cell suspension of MCF7 cells previously exposed to normoxia (21% O2) or hypoxia (1% O2) for 6 h, 72 h or 96 h was prepared using enzymatic (lx Trypsin-EDTA, Sigma Aldrich) and manual disaggregation (25-gauge needle). Cells were plated at a density of 500 cells/cm^2 in mammosphere medium (DMEM-F12/B27/20-ng/ml EGF/PenStrep) in nonadherent conditions, in culture dishes coated with (2-hydroxyethylmethacrylate) (poly-HEMA, Sigma), in the presence of treatments. Cells were grown for 5 days and maintained in a humidified incubator at 37° C. at an atmospheric pressure in 5% (v/v) carbon dioxide/air. After five days of culturing, spheres greater than 50 μm in diameter were counted using an eye piece graticule, and the percentage of cells plated which formed spheres was calculated. Mammosphere assays were performed in triplicate and repeated three times independently."}, "MCF7 cells [2]": {"test_system": "MCF7 cells", "experiment": "ALDH activity by FACS (ALDEFLUOR kit)", "settings": "2.5 mM; FIGS. 11C-D", "procedure": "The present approach further includes methods of analyzing the effects of hypoxia on CSCs by examining relative changes of CSC markers. For example, aldehyde dehydrogenase (ALDH) activity is routinely used as a marker for CSCs. It should be appreciated by those in the art that other CSC markers may be used. ALDH activity was assessed by FACS analysis in MCF7 cells cultured for 72 hours in normoxia (21% 02) or hypoxia (1% 02). The ALDEFLUOR kit (StemCell Technologies) was used to isolate the population with high ALDH enzymatic activity by FACS (Fortessa, BD Bioscence). Briefly, 1×10^5 MCF7 cells were incubated in 1 ml ALDEFLUOR assay buffer containing ALDH substrate (5 μl/ml) for 40 minutes at 37° C. In each experiment, a sample of cells was stained under identical conditions with 30 μM of diethylaminobenzaldehyde (DEAB), a specific ALDH inhibitor, as a negative control. The ALDEFLUOR-positive population was established in according to the manufacturer's instructions and was evaluated in 3×10^4 cells. Data analysis was performed using FlowJo software (Tree star Inc.)."}, "MCF7 cells [3]": {"test_system": "MCF7 cells", "experiment": "Mitochondrial mass by FACS with MitoTracker Deep-Red-FM", "settings": "increasing concentrations 0, 1, 2.5 and 5 mM; FIG. 11A", "procedure": "The inventors examined the effects of chronic hypoxia and oxidative stress on the propagation of breast CSCs using MCF7 cells as a model system. It should be appreciated that other model systems may be used. Briefly, MCF7 cells were obtained from ATCC and cultured in DMEM (Sigma Aldrich). For hypoxic testing, MCF7 cells were cultured in low glucose DMEM in a multi-gas N2/CO2 hypoxic chamber at 1% 02. In parallel, MCF7 cells were cultured in low glucose DMEM at 21% 02 to serve as a normoxic control. […] Next, the MCF7 cells were trypsinized and subjected to fluorescence-activated cell sorting (FACS) with MitoTracker Deep-Red-FM (Life Technologies). MitoTracker Deep Red localizes to mitochondria regardless of mitochondrial membrane potential. Cells were incubated with pre-warmed MitoTracker staining solution (diluted in PBS/CM to a final concentration of 10 nM) for 30-60 min at 37° C. All subsequent steps were performed in the dark. Cells were washed in PBS, harvested, re-suspended in 300 μL of PBS and then analyzed by flow cytometry (Fortessa, BD Bioscience). Data analysis was performed using FlowJo software (Tree star Inc.). […] FIG. 2F is a representative FACS tracing showing 96 hours of hypoxia increased mitochondrial mass. The effects of hypoxia treatment were confirmed using immunoblot analysis with TOMM20, a marker of mitochondrial mass."}}, "note": "Where two headings read alike, the source gives them in different places.", "data": [{"compound": "O=CC[C@@H](O)[C@H](O)[C@H](O)CO", "note": "[2-DG, 2-deoxy-D-glucose]", "values": [{"measurement": "IC50", "setting": "CSC propagation; Table 3, values in mM", "result": "10 to 20", "unit": "mM"}, {"measurement": "IC50", "setting": "MCF7 cells [1]", "result": 1000, "unit": "µM"}, {"measurement": "Valproic acid-augmented CSC propagation (mammosphere formation)", "setting": "MCF7 cells [1]", "result": "sufficient to inhibit"}]}, {"compound": "O=C1C(O)=C([C@H]2CC[C@H](c3ccc(Cl)cc3)CC2)C(=O)c2ccccc21", "note": "[Atovaquone]", "values": [{"measurement": "IC50", "setting": "CSC propagation; Table 3, values in mM", "result": 0.001, "unit": "mM"}]}, {"compound": "CC[C@H]1OC(=O)[C@H](C)[C@@H](O[C@H]2C[C@@](C)(OC)[C@@H](O)[C@H](C)O2)[C@H](C)[C@@H](O[C@@H]2O[C@H](C)C[C@H](N(C)C)[C@H]2O)[C@](C)(O)C[C@@H](C)CN(C)[C@H](C)[C@@H](O)[C@]1(C)O", "note": "[Azithromycin]", "values": [{"measurement": "IC50", "setting": "CSC propagation; Table 3, values in mM", "result": "0.05 to 0.1", "unit": "mM"}]}, {"compound": "COc1nc2ccc(Br)cc2cc1[C@@H](c1ccccc1)[C@@](O)(CCN(C)C)c1cccc2ccccc12", "note": "[Bedaquiline]", "values": [{"measurement": "IC50", "setting": "CSC propagation; Table 3, values in mM", "result": 0.001, "unit": "mM"}]}, {"compound": "COc1ccc2cc3[n+](cc2c1OC)CCc1cc2c(cc1-3)OCO2", "note": "[Berberine]", "values": [{"measurement": "IC50", "setting": "CSC propagation; Table 3, values in mM", "result": 0.001, "unit": "mM"}]}, {"compound": "CCN(CC)CCCC(C)Nc1ccnc2cc(Cl)ccc12", "note": "(stereo not shown) [Chloroquine]", "values": [{"measurement": "IC50", "setting": "CSC propagation", "result": "< 0.025", "unit": "mM"}]}, {"compound": "C[C@H]1c2cccc(O)c2C(=O)C2=C(O)[C@]3(O)C(=O)C(C(N)=O)=C(O)[C@@H](N(C)C)[C@@H]3[C@@H](O)[C@@H]21", "note": "[Doxycycline]", "values": [{"measurement": "IC50", "setting": "CSC propagation; Table 3, values in mM", "result": 0.005, "unit": "mM"}]}, {"compound": "CCOC(=O)[C@@]1(CCCCCCOc2ccc(Cl)cc2)CO1", "note": "[Etomoxir]", "values": [{"measurement": "IC50", "setting": "CSC propagation; Table 3, values in mM", "result": "< 0.2", "unit": "mM"}, {"measurement": "basal and Valproic acid-augmented CSC propagation (mammosphere formation)", "setting": "MCF7 cells [1]", "result": "inhibit"}]}, {"compound": "CCc1c2c(nc3ccc(OC(=O)N4CCC(N5CCCCC5)CC4)cc13)-c1cc3c(c(=O)n1C2)COC(=O)[C@]3(O)CC", "note": "[Irinotecan]", "values": [{"measurement": "IC50", "setting": "CSC propagation; Table 3, values given with nM", "result": 0.0005, "unit": "mM"}]}, {"compound": "O=C(Nc1ccc([N+](=O)[O-])cc1Cl)c1cc(Cl)ccc1O", "note": "[Niclosamide]", "values": [{"measurement": "IC50", "setting": "CSC propagation; Table 3, values given with nM", "result": 0.0001, "unit": "mM"}]}, {"compound": "CC(=O)O[C@H]1C(=O)[C@@]2(C)[C@H]([C@H](OC(=O)c3ccccc3)[C@]3(O)C[C@H](OC(=O)[C@H](O)[C@@H](NC(=O)c4ccccc4)c4ccccc4)C(C)=C1C3(C)C)[C@]1(OC(C)=O)CO[C@@H]1C[C@@H]2O", "note": "[Paclitaxel]", "values": [{"measurement": "CSC resistance to treatment (measured by mammosphere formation)", "setting": "MCF7 cells [1]; MCF7 cells, FIGS. 5A-B", "result": "a fraction of CSCs is resistant"}]}, {"compound": "C1CCC(C(CC2CCCCN2)C2CCCCC2)CC1", "note": "(stereo not shown) [Perhexiline]", "values": [{"measurement": "IC50", "setting": "CSC propagation; Table 3, values given with nM", "result": "< 0.0001", "unit": "mM"}, {"measurement": "basal and Valproic acid-augmented CSC propagation (mammosphere formation)", "setting": "MCF7 cells [1]", "result": "inhibit"}]}, {"compound": "CNC(=O)c1cc(Oc2ccc(NC(=O)Nc3ccc(Cl)c(C(F)(F)F)c3)cc2)ccn1", "note": "[Sorafenib]", "values": [{"measurement": "IC50", "setting": "CSC propagation; Table 3, values in mM", "result": "0.0005 to 0.001", "unit": "mM"}]}, {"compound": "CC(C)(C)C(O)/C=C/c1ccc2c(c1)OCO2", "note": "(stereo not shown) [Stiripentol]", "values": [{"measurement": "IC50", "setting": "CSC propagation; Table 3, values in mM", "result": "0.01 to 0.05", "unit": "mM"}]}, {"compound": "CCCC(CCC)C(=O)O", "note": "[Valproic acid]", "values": [{"measurement": "increase in ALDH activity", "setting": "MCF7 cells [2]", "result": "> 1.5", "unit": "fold"}, {"measurement": "increase in mitochondrial mass", "setting": "MCF7 cells [3]", "result": "up to 3 fold"}, {"measurement": "mammosphere formation", "setting": "MCF7 cells [1]; MCF7 cells, FIG. 11B", "result": "increases"}]}, {"compound": "O=C1O[C@H]([C@@H](O)CO)C(O)=C1O", "note": "[Vitamin C, ascorbic acid]", "values": [{"measurement": "IC50", "setting": "CSC propagation; Table 3, values in mM", "result": 1, "unit": "mM"}, {"measurement": "IC50", "setting": "MCF7 cells [1]", "result": "~500", "unit": "µM"}, {"measurement": "Valproic acid-augmented CSC propagation (mammosphere formation)", "setting": "MCF7 cells [1]", "result": "sufficient to inhibit"}, {"measurement": "potency under Valproic acid-augmented conditions compared to basal conditions", "setting": "MCF7 cells [1]; versus previously published results under basal conditions (Bonuccelli et al. 2017)", "result": "two times as potent"}]}]}
